Assay results reported in patent US7884136B2, “Modified-release formulations of a bupropion salt” (Biovail Laboratories International S.R.L., priority 2005, dated 2011).

Test: Shelf life stability program of bupropion HBr, 25° C./60% RH, 3 and 6 months, HPLC
Type: physicochemical
Conditions: 25° C./RH 60%; for Chromatographic purity B) (HPLC): 4) 2-N-(tert-Butyl)-aminopropiophenone / Chromatographic purity B) (HPLC): 5) single unknown impurity (each): LOQ 0.02%, LOD 0.002%; for Chromatographic purity A) (HPLC): 1) 3′-Chloropropiophenone / Chromatographic purity A) (HPLC): 3) 3′-Chlorobenzoic acid / Chromatographic purity A) (HPLC): 2) 3′-Chloro-2-bromopropiophenone: LOQ 0.05%; for Chromatographic purity A) (HPLC): 1) 3′-Chloropropiophenone / Chromatographic purity A) (HPLC): 3) 3′-Chlorobenzoic acid: LOD 0.01%; for Chromatographic purity A) (HPLC): 2) 3′-Chloro-2-bromopropiophenone: LOD 0.04%; for Description: specification white or almost white crystalline powder; for Assay (HPLC): on d.b.; for Chromatographic purity B) (HPLC): 6) total unknown impurities: sum of all impurity peak areas
Method: The stability of bupropion HBr was studied over a longer term under conditions meant to approximate standard storage or shelf conditions. Samples were prepared in closed containers and subjected to long-term storage at 25° C.+2° C. and 60%+5% RH in a stability chamber. The samples were analyzed by HPLC prior to being placed in the stability chamber (time 0) and after 3 months and 6 months. The amounts of the main degradation products present at time 0 were compared with the amounts present at 3 months and 6 months. As shown in Table 77-79 three different batches of bupropion HBr were tested. As in Example 10 each sample was tested under two HPLC assay conditions to identify 6 impurities or groups of impurities as described in Example 10.

Br.CC(NC(C)(C)C)C(=O)c1cccc(Cl)c1 (stereo not shown) [Bupropion•HBr D00894]
Chromatographic purity (HPLC: A + B) Total impurities (3 months): 0.1%
Water content (K.F.) (3 months): 0.05%
Chromatographic purity B) (HPLC): 4) 2-N-(tert-Butyl)-aminopropiophenone (3 months): 4) 0.03%
Chromatographic purity B) (HPLC): 5) single unknown impurity (each) (3 months): 5) 0.04%
Chromatographic purity A) (HPLC): 1) 3′-Chloropropiophenone (3 months): 1) n.q.
Chromatographic purity A) (HPLC): 3) 3′-Chlorobenzoic acid (3 months): 3) n.q.
Chromatographic purity A) (HPLC): 2) 3′-Chloro-2-bromopropiophenone (3 months): 2) n.d.
Description (3 months): conform
Chromatographic purity (HPLC: A + B) Total impurities (6 months): 0.1%
Water content (K.F.) (6 months): 0.06%
Chromatographic purity B) (HPLC): 4) 2-N-(tert-Butyl)-aminopropiophenone (6 months): 4) 0.05%
Chromatographic purity B) (HPLC): 5) single unknown impurity (each) (6 months): 5) n.q.
Chromatographic purity A) (HPLC): 1) 3′-Chloropropiophenone (6 months): 1) 0.05%
Chromatographic purity A) (HPLC): 3) 3′-Chlorobenzoic acid (6 months): 3) n.q.
Chromatographic purity A) (HPLC): 2) 3′-Chloro-2-bromopropiophenone (6 months): 2) n.d.
Assay (HPLC) (6 months): 100.2%
Description (6 months): conform
Chromatographic purity (HPLC: A + B) Total impurities (9 months): n.q.
Water content (K.F.) (9 months): 0.05%
Chromatographic purity B) (HPLC): 4) 2-N-(tert-Butyl)-aminopropiophenone (9 months): 4) n.d.
Chromatographic purity B) (HPLC): 5) single unknown impurity (each) (9 months): 5) n.q.
Chromatographic purity A) (HPLC): 1) 3′-Chloropropiophenone (9 months): 1) n.q.
Chromatographic purity A) (HPLC): 3) 3′-Chlorobenzoic acid (9 months): 3) n.q.
Chromatographic purity A) (HPLC): 2) 3′-Chloro-2-bromopropiophenone (9 months): 2) n.d.
Description (9 months): conform
Chromatographic purity B) (HPLC): 6) total unknown impurities (9 months): 6) n.q.
Chromatographic purity (HPLC: A + B) Total impurities (12 months): 0.2%
Water content (K.F.) (12 months): 0.05%
Chromatographic purity B) (HPLC): 4) 2-N-(tert-Butyl)-aminopropiophenone (12 months): 4) 0.05%
Chromatographic purity B) (HPLC): 5) single unknown impurity (each) (12 months): 5) 0.05%
Chromatographic purity A) (HPLC): 1) 3′-Chloropropiophenone (12 months): 1) n.d.
Chromatographic purity A) (HPLC): 3) 3′-Chlorobenzoic acid (12 months): 3) 0.05%
Chromatographic purity A) (HPLC): 2) 3′-Chloro-2-bromopropiophenone (12 months): 2) n.d.
Assay (HPLC) (12 months): 99.6%
Description (12 months): conform
Chromatographic purity B) (HPLC): 6) total unknown impurities (12 months): 6) 0.07%
Chromatographic purity (HPLC: A + B) Total impurities (time 0): 0.1%
Water content (K.F.) (time 0): 0.05%
Chromatographic purity B) (HPLC): 4) 2-N-(tert-Butyl)-aminopropiophenone (time 0): 4) 0.04%
Chromatographic purity B) (HPLC): 5) single unknown impurity (each) (time 0): 5) 0.04%
Chromatographic purity A) (HPLC): 1) 3′-Chloropropiophenone (time 0): 1) n.d.
Chromatographic purity A) (HPLC): 3) 3′-Chlorobenzoic acid (time 0): 3) n.q.
Chromatographic purity A) (HPLC): 2) 3′-Chloro-2-bromopropiophenone (time 0): 2) n.d.
Assay (HPLC) (time 0): 99.6%
Description (time 0): conform

Br.CC(NC(C)(C)C)C(=O)c1cccc(Cl)c1 (stereo not shown) [Bupropion•HBr D00896]
Chromatographic purity (HPLC: A + B) Total impurities (3 months): 0.1%
Water content (K.F.) (3 months): 0.04%
Chromatographic purity B) (HPLC): 4) 2-N-(tert-Butyl)-aminopropiophenone (3 months): 4) 0.03%
Chromatographic purity B) (HPLC): 5) single unknown impurity (each) (3 months): 5) 0.04%
Chromatographic purity A) (HPLC): 1) 3′-Chloropropiophenone (3 months): 1) n.q.
Chromatographic purity A) (HPLC): 3) 3′-Chlorobenzoic acid (3 months): 3) n.q.
Chromatographic purity A) (HPLC): 2) 3′-Chloro-2-bromopropiophenone (3 months): 2) n.d.
Description (3 months): conform
Chromatographic purity B) (HPLC): 6) total unknown impurities (3 months): 6) 0.05%
Chromatographic purity (HPLC: A + B) Total impurities (6 months): 0.1%
Water content (K.F.) (6 months): 0.04%
Chromatographic purity B) (HPLC): 4) 2-N-(tert-Butyl)-aminopropiophenone (6 months): 4) 0.04%
Chromatographic purity B) (HPLC): 5) single unknown impurity (each) (6 months): 5) n.q.
Chromatographic purity A) (HPLC): 1) 3′-Chloropropiophenone (6 months): 1) 0.05%
Chromatographic purity A) (HPLC): 3) 3′-Chlorobenzoic acid (6 months): 3) n.q.
Chromatographic purity A) (HPLC): 2) 3′-Chloro-2-bromopropiophenone (6 months): 2) n.d.
Assay (HPLC) (6 months): 100.5%
Description (6 months): conform
Chromatographic purity B) (HPLC): 6) total unknown impurities (6 months): 6) n.q.
Chromatographic purity (HPLC: A + B) Total impurities (9 months): n.q.
Water content (K.F.) (9 months): 0.04%
Chromatographic purity B) (HPLC): 4) 2-N-(tert-Butyl)-aminopropiophenone (9 months): 4) n.d.
Chromatographic purity B) (HPLC): 5) single unknown impurity (each) (9 months): 5) n.q.
Chromatographic purity A) (HPLC): 1) 3′-Chloropropiophenone (9 months): 1) n.q.
Chromatographic purity A) (HPLC): 3) 3′-Chlorobenzoic acid (9 months): 3) n.q.
Chromatographic purity A) (HPLC): 2) 3′-Chloro-2-bromopropiophenone (9 months): 2) n.d.
Description (9 months): conform
Chromatographic purity B) (HPLC): 6) total unknown impurities (9 months): 6) n.q.
Chromatographic purity (HPLC: A + B) Total impurities (12 months): 0.1%
Water content (K.F.) (12 months): 0.03%
Chromatographic purity B) (HPLC): 4) 2-N-(tert-Butyl)-aminopropiophenone (12 months): 4) 0.05%
Chromatographic purity B) (HPLC): 5) single unknown impurity (each) (12 months): 5) 0.07%
Chromatographic purity A) (HPLC): 1) 3′-Chloropropiophenone (12 months): 1) n.d.
Chromatographic purity A) (HPLC): 3) 3′-Chlorobenzoic acid (12 months): 3) n.q.
Chromatographic purity A) (HPLC): 2) 3′-Chloro-2-bromopropiophenone (12 months): 2) n.d.
Assay (HPLC) (12 months): 100.3%
Description (12 months): conform
Chromatographic purity B) (HPLC): 6) total unknown impurities (12 months): 6) 0.07%
Chromatographic purity (HPLC: A + B) Total impurities (time 0): 0.1%
Water content (K.F.) (time 0): 0.06%
Chromatographic purity B) (HPLC): 4) 2-N-(tert-Butyl)-aminopropiophenone (time 0): 4) 0.04%
Chromatographic purity B) (HPLC): 5) single unknown impurity (each) (time 0): 5) 0.05%
Chromatographic purity A) (HPLC): 1) 3′-Chloropropiophenone (time 0): 1) n.d.
Chromatographic purity A) (HPLC): 3) 3′-Chlorobenzoic acid (time 0): 3) n.q.
Chromatographic purity A) (HPLC): 2) 3′-Chloro-2-bromopropiophenone (time 0): 2) n.d.
Assay (HPLC) (time 0): 99.3%
Description (time 0): conform
Chromatographic purity B) (HPLC): 6) total unknown impurities (time 0): 6) 0.05%

Br.CC(NC(C)(C)C)C(=O)c1cccc(Cl)c1 (stereo not shown) [Bupropion•HBr D00895]
Chromatographic purity (HPLC: A + B) Total impurities (3 months): 0.1%
Water content (K.F.) (3 months): 0.04%
Chromatographic purity B) (HPLC): 4) 2-N-(tert-Butyl)-aminopropiophenone (3 months): 4) 0.03%
Chromatographic purity B) (HPLC): 5) single unknown impurity (each) (3 months): 5) 0.04%
Chromatographic purity A) (HPLC): 1) 3′-Chloropropiophenone (3 months): 1) n.q.
Chromatographic purity A) (HPLC): 3) 3′-Chlorobenzoic acid (3 months): 3) n.q.
Chromatographic purity A) (HPLC): 2) 3′-Chloro-2-bromopropiophenone (3 months): 2) n.d.
Description (3 months): conform
Chromatographic purity (HPLC: A + B) Total impurities (6 months): 0.1%
Water content (K.F.) (6 months): 0.05%
Chromatographic purity B) (HPLC): 4) 2-N-(tert-Butyl)-aminopropiophenone (6 months): 4) 0.05%
Chromatographic purity B) (HPLC): 5) single unknown impurity (each) (6 months): 5) n.q.
Chromatographic purity A) (HPLC): 1) 3′-Chloropropiophenone (6 months): 1) 0.05%
Chromatographic purity A) (HPLC): 3) 3′-Chlorobenzoic acid (6 months): 3) n.q.
Chromatographic purity A) (HPLC): 2) 3′-Chloro-2-bromopropiophenone (6 months): 2) n.d.
Assay (HPLC) (6 months): 100.1%
Description (6 months): conform
Chromatographic purity B) (HPLC): 6) total unknown impurities (6 months): 6) 0.02%
Chromatographic purity (HPLC: A + B) Total impurities (9 months): n.q.
Water content (K.F.) (9 months): 0.05%
Chromatographic purity B) (HPLC): 4) 2-N-(tert-Butyl)-aminopropiophenone (9 months): 4) n.d.
Chromatographic purity B) (HPLC): 5) single unknown impurity (each) (9 months): 5) n.q.
Chromatographic purity A) (HPLC): 1) 3′-Chloropropiophenone (9 months): 1) n.q.
Chromatographic purity A) (HPLC): 3) 3′-Chlorobenzoic acid (9 months): 3) n.q.
Chromatographic purity A) (HPLC): 2) 3′-Chloro-2-bromopropiophenone (9 months): 2) n.d.
Description (9 months): conform
Chromatographic purity B) (HPLC): 6) total unknown impurities (9 months): 6) n.q.
Chromatographic purity (HPLC: A + B) Total impurities (12 months): 0.2%
Water content (K.F.) (12 months): 0.04%
Chromatographic purity B) (HPLC): 4) 2-N-(tert-Butyl)-aminopropiophenone (12 months): 4) 0.05%
Chromatographic purity B) (HPLC): 5) single unknown impurity (each) (12 months): 5) 0.07%
Chromatographic purity A) (HPLC): 1) 3′-Chloropropiophenone (12 months): 1) n.d.
Chromatographic purity A) (HPLC): 3) 3′-Chlorobenzoic acid (12 months): 3) 0.05%
Chromatographic purity A) (HPLC): 2) 3′-Chloro-2-bromopropiophenone (12 months): 2) n.d.
Description (12 months): conform
Chromatographic purity B) (HPLC): 6) total unknown impurities (12 months): 6) 0.07%
Chromatographic purity (HPLC: A + B) Total impurities (time 0): 0.1%
Water content (K.F.) (time 0): 0.04%
Chromatographic purity B) (HPLC): 4) 2-N-(tert-Butyl)-aminopropiophenone (time 0): 4) 0.04%
Chromatographic purity B) (HPLC): 5) single unknown impurity (each) (time 0): 5) 0.04%
Chromatographic purity A) (HPLC): 1) 3′-Chloropropiophenone (time 0): 1) n.d.
Chromatographic purity A) (HPLC): 3) 3′-Chlorobenzoic acid (time 0): 3) n.q.
Chromatographic purity A) (HPLC): 2) 3′-Chloro-2-bromopropiophenone (time 0): 2) n.d.
Assay (HPLC) (time 0): 99.2%
Description (time 0): conform
Chromatographic purity B) (HPLC): 6) total unknown impurities (time 0): 6) 0.04%
